Data on 20 compounds can be found in patent US5633345A, “Cyclic peptides” (priority 1992, dated 1997).

By MIC is commonly meant the smallest concentration in the dilution series that meets the test's criterion for growth inhibition. Low values mean greater potency, high ones weaker potency.

Starred links: 1 amine or outer side, 2 acyl side, 3 side chain; linkers in the order of their positions; H or OH if unused. Non-standard residues stand in square brackets, D forms with d. Residues, ends and D or L forms follow the SMILES beside them. *: point of attachment. X7 = CC(=O)OC(c1ccccc1)[C@@H](C(=O)[*:2])N(C)[*:1]; X1 = CC[C@@H](C)[C@@H](O[*:1])C(=O)[*:2]; NMeVal(β-OH) = CN[C@H](C(=O)O)C(C)(C)O; X6 = CC(CO)[C@@H](C(=O)[*:2])N(C)[*:1]; NMeaIle = CC[C@@H](C)[C@H](NC)C(=O)O; X5 = CN([C@@H](CCCO)C(=O)[*:2])[*:1]; NMeY = CN[C@@H](Cc1ccc(O)cc1)C(=O)O; NMeF = CN[C@@H](Cc1ccccc1)C(=O)O; aIle = CC[C@@H](C)[C@H](N)C(=O)O; Nva(5-OH) = N[C@@H](CCCO)C(=O)O; NMeV = CN[C@H](C(=O)O)C(C)C; Thz = O=C(O)[C@@H]1CSCN1; OBn = c1ccc(CO*)cc1; Sar = CNCC(=O)O

The test system of data set [1] is C. albicans TIMM 0171. The data set can be described thus: Antifungal activity, MIC by agar dilution method. It counts as cell-based, Candida albicans. The conditions noted are these: for MIC: C. albicans TIMM 0171, Sabouraud-dextrose agar medium, 30° C. for 2 days. As to the method:
(§1) The minimum inhibitory concentration (MIC) values were determined after incubation at 30° C. for 2 days.
Background: In agar dilution, organisms are placed on agar that contains the substance at set levels.

The subject of data set [2] is Candida albicans TIMM 0136. The data set can be described thus: Antifungal activity, MIC by agar dilution method. It is filed as cell-based. The conditions noted are these: Sabouraud-dextrose agar medium, 30° C. for 2 days. As to the method: as §1
Data set [3] deals with C. kefyr TIMM 0301. Description: Antifungal activity, MIC by agar dilution method. It counts as cell-based. The conditions noted are these: Sabouraud-dextrose agar medium, 30° C. for 2 days. On the procedure: as §1
Data set [4] relates to C. grabrata TIMM 1062. Description: Antifungal activity, MIC by agar dilution method. The settings on record: Sabouraud-dextrose agar medium, 30° C. for 2 days. It is filed as cell-based. As to the method:
as §1

In data set [5] the test system is Cryptococcus neoformans TIMM 0354. Description: Antifungal activity, MIC by agar dilution method. The settings on record: Sabouraud-dextrose agar medium, 30° C. for 2 days. It is filed as cell-based. As to the method: as §1
The conditions of data set [6]: mouse, in vivo, ip, 100 mg/kg.

Consider “cyclo(L-aIle-L-ROMeNva-L-Leu-L-βHOMeVal-D-Hmp-L-MeVal-L-Phe-L-MePhe-L-Pro) (R: Bzl) [Compound 27]”, for which the minimal inhibitory concentration (MIC) in data set [1] is 0.78 µg/mL; in data set [2], 0.78 µg/mL; in data set [3], 3.12 µg/mL; in data set [4], greater than 25 µg/mL; in data set [5], greater than 25 µg/mL.

As for “cyclo(L-GluOR-L-MeVal-L-Leu-L-βHOMeVal-D-Hmp-L-MeVal-L-Phe-L-MePhe-L- Pro) (R: n-decyl) [Compound 33]”, the MIC is 1.56 µg/mL in data set [1]; 1.56 µg/mL in data set [2]; greater than 25 µg/mL in data set [3]; greater than 25 µg/mL in data set [4]; greater than 25 µg/mL in data set [5].

Regarding “cyclo(L-GluOR-L-MeVal-L-Leu-L-βHOMeVal-D-Hmp-L-MeVal-L-Phe-L-MePhe-L- Pro) (R: trans-3-hexenyl) [Compound 35]”, the MIC in data set [1] was 0.78 µg/mL; in data set [2], 0.20 µg/mL; in data set [3], 1.56 µg/mL; in data set [4] it was 0.39 µg/mL; in data set [5], greater than 25 µg/mL.

Turning to `CC[C@@H](C)[C@@H]1NC(=O)[C@@H]2CCCN2C(=O)CN(C)C(=O)[C@H](Cc2ccccc2)NC(=O)[C@H](C(C)C)N(C)C(=O)[C@@H]([C@H](C)CC)OC(=O)[C@H](C(C)(C)O)N(C)C(=O)[C@H](CC(C)C)NC(=O)[C@H](C(C)C)N(C)C1=O` [Compound 13] (cyclo(F[Sar]P[aIle][NMeV]L[NMeVal(β-OH)][X1][NMeV])), the toxicity signs entry in data set [6] is on record as “no toxicity signs”.

Turning to `CC[C@@H](C)[C@@H]1NC(=O)[C@@H]2CCCN2C(=O)[C@H](Cc2ccccc2)N(C)C(=O)[C@H](Cc2ccccc2)NC(=O)[C@H](C(C)C)N(C)C(=O)[C@@H]([C@H](C)CC)OC(=O)[C@H](C(C)(C)O)N(C)C(=O)[C@H](CC(C)C)NC(=O)[C@H](CCCO)N(C)C1=O` [Compound 28, cyclo(L-aIle-L-HOMeNva-L-Leu-L-βHOMeVal-D-Hmp-L-MeVal-L-Phe-L-MePhe-L-Pro)] (cyclo(F[NMeF]P[aIle][X5]L[NMeVal(β-OH)][X1][NMeV])), the toxicity signs result in data set [6] was “no toxicity signs”.

For `CC[C@@H](C)[C@@H]1NC(=O)[C@@H]2CCCN2C(=O)[C@H](Cc2ccccc2)N(C)C(=O)[C@H](Cc2ccccc2)NC(=O)[C@H](C(C)C)N(C)C(=O)[C@@H]([C@H](C)CC)OC(=O)[C@H](C(C)(C)O)N(C)C(=O)[C@H](CCCO)NC(=O)[C@H](C(C)C)N(C)C1=O` [Compound 39, cyclo(L-aIle-L-MeVal-L-HONva-L-βHOMeVal-D-Hmp-L-MeVal-L-Phe-L-MePhe-L-Pro)] (cyclo(F[NMeF]P[aIle][NMeV][Nva(5-OH)][NMeVal(β-OH)][X1][NMeV])), the toxicity signs entry in data set [6] is listed as “no toxicity signs”.

On to `CC(C)C[C@@H]1NC(=O)[C@H](C(C)C)N(C)C(=O)[C@H](C(C)C)NC(=O)[C@@H]2CCCN2C(=O)[C@H](Cc2ccccc2)N(C)C(=O)[C@H](Cc2ccccc2)NC(=O)[C@H](C(C)C)N(C)C(=O)[C@@H](C(C)C)OC(=O)[C@H](C(C)(C)O)N(C)C1=O` [Compound 25] (HELM PEPTIDE1{F.[meF].P.V.[meV].L.[CN([C@H](C(=O)[*:2])C(C)(C)O)[*:1]].[CC(C)[C@@H](O[*:1])C(=O)[*:2]].[meV]}$PEPTIDE1,PEPTIDE1,1:R1-9:R2$$$V2.0), for which the toxicity signs result in data set [6] is “no toxicity signs”.

On to `CC[C@@H](C)[C@@H]1NC(=O)[C@@H]2CCCN2C(=O)[C@H](Cc2ccccc2)N(C)C(=O)[C@H](Cc2ccccc2)NC(=O)[C@H](C(C)C)N(C)C(=O)[C@@H]([C@H](C)CC)OC(=O)[C@H](C(C)(C)O)N(C)C(=O)[C@H](CC(C)C)NC(=O)[C@H]([C@H](C)CC)N(C)C1=O` [Compound 22, cyclo (L-aIle-L-MeaIle-L-Leu-L-βHOMeVal-D-Hmp-L-MeVal-L-Phe-L-MePhe-L-Pro)] (cyclo(F[NMeF]P[aIle][NMeaIle]L[NMeVal(β-OH)][X1][NMeV])), for which, in data set [6], the toxicity signs result is recorded as “no toxicity signs”.

On to `CC[C@@H](C)[C@@H]1NC(=O)[C@@H]2CCCN2C(=O)[C@H](C(OC(C)=O)c2ccccc2)N(C)C(=O)[C@H](Cc2ccccc2)NC(=O)[C@H](C(C)C)N(C)C(=O)[C@@H]([C@H](C)CC)OC(=O)[C@H](C(C)(C)O)N(C)C(=O)[C@H](CC(C)C)NC(=O)[C@H](C(C)C)N(C)C1=O` (stereo partly drawn) [Compound 15] (cyclo(F[X7]P[aIle][NMeV]L[NMeVal(β-OH)][X1][NMeV])), for which, in data set [6], the toxicity signs result is on record as “no toxicity signs”.

As to “cyclo(L-GluOR-L-MeVal-L-Leu-L-βHOMeVal-D-Hmp-L-MeVal-L-Phe-L-MePhe-L- Pro) (R: n-octyl) [Compound 32]”, the MIC in data set [1] is 0.78 µg/mL; in data set [2], 0.78 µg/mL; in data set [3], 6.25 µg/mL; in data set [4] it was 1.56 µg/mL; in data set [5] it was greater than 25 µg/mL.

For “cyclo(L-GluOR-L-MeVal-L-Leu-L-βHOMeVal-D-Hmp-L-MeVal-L-Phe-L-MePhe-L- Pro) (R: cis-3-hexenyl) [Compound 34]”, the MIC was 0.10 µg/mL in data set [1]; 0.20 µg/mL in data set [2]; 0.78 µg/mL in data set [3]; 0.39 µg/mL in data set [4]; greater than 25 µg/mL in data set [5].

Turning to “cyclo(L-aIle-L-MeVal-L-GluOR-L-βHOMeVal-D-Hmp-L-MeVal-L-Phe-L-MePhe-L-Pro) (R: cHex) [Compound 38]”, the MIC in data set [1] was 0.013 µg/mL; in data set [2] it was 0.20 µg/mL; in data set [3] it was 3.12 µg/mL; in data set [4], 1.56 µg/mL; in data set [5], greater than 25 µg/mL. Also, the “activity against Candida albicans TIMM 0171 compared with compound 1” value in data set [1] (comparison in words) is listed as “higher activity against Candida albicans TIMM 0171 than compound 1”.

With “cyclo(L-GluOR-L-MeVal-L-Leu-L-βHOMeVal-D-Hmp-L-MeVal-L-Phe-L-MePhe-L- Pro) (R: n-hexyl) [Compound 31]”, the MIC in data set [1] was 0.20 µg/mL; in data set [2], 0.39 µg/mL; in data set [3] it was 3.12 µg/mL; in data set [4], 1.56 µg/mL; in data set [5] it was greater than 25 µg/mL.

`CC[C@@H](C)[C@@H]1NC(=O)[C@@H]2CCCN2C(=O)[C@H](Cc2ccccc2)N(C)C(=O)[C@H](Cc2ccccc2)NC(=O)[C@H](C(C)C)N(C)C(=O)[C@@H]([C@H](C)CC)OC(=O)[C@H](C(C)CO)N(C)C(=O)[C@H](CC(C)C)NC(=O)[C@H](C(C)C)N(C)C1=O` (some centres unmarked) [Compound 4] (cyclo(F[NMeF]P[aIle][NMeV]L[X6][X1][NMeV])): in data set [6], the toxicity signs result is on record as “no toxicity signs”.

For `CC[C@@H](C)[C@@H]1NC(=O)[C@@H]2CCCN2C(=O)[C@H](Cc2ccccc2)N(C)C(=O)[C@H](Cc2ccccc2)NC(=O)[C@H](C(C)C)N(C)C(=O)[C@@H]([C@H](C)CC)OC(=O)[C@H](C(C)(C)O)N(C)C(=O)[C@H]([C@H](C)CC)NC(=O)[C@H](C(C)C)N(C)C1=O` [Compound 24, cyclo(L-aIle-L-MeVal-L-aIle-L-βHOMeVal-D-Hmp-L-MeVal-L-Phe-L-MePhe-L- Pro)] (cyclo(F[NMeF]P[aIle][NMeV][aIle][NMeVal(β-OH)][X1][NMeV])), the toxicity signs entry in data set [6] is listed as “no toxicity signs”.

As to `CC[C@@H](C)[C@@H]1NC(=O)[C@@H]2CCCN2C(=O)[C@H](Cc2ccc(O)cc2)N(C)C(=O)[C@H](Cc2ccccc2)NC(=O)[C@H](C(C)C)N(C)C(=O)[C@@H]([C@H](C)CC)OC(=O)[C@H](C(C)(C)O)N(C)C(=O)[C@H](CC(C)C)NC(=O)[C@H](C(C)C)N(C)C1=O` [Compound 8] (cyclo(F[NMeY]P[aIle][NMeV]L[NMeVal(β-OH)][X1][NMeV])), in data set [6], the toxicity signs entry is “no toxicity signs”.

Turning to “cyclo(L-RONva-L-MeVal-L-Leu-L-βHOMeVal-D-Hmp-L-MeVal-L-Phe-L-MePhe-L- Pro) (R: n-hexanoyl) [Compound 37]”, the MIC came out at 0.10 µg/mL in data set [1]; 0.10 µg/mL in data set [2]; 0.78 µg/mL in data set [3]; 0.39 µg/mL in data set [4]; 12.5 µg/mL in data set [5].

For the compound `CC[C@@H](C)[C@@H]1NC(=O)[C@@H]2CSCN2C(=O)[C@H](Cc2ccccc2)N(C)C(=O)[C@H](Cc2ccccc2)NC(=O)[C@H](C(C)C)N(C)C(=O)[C@@H]([C@H](C)CC)OC(=O)[C@H](C(C)(C)O)N(C)C(=O)[C@H](CC(C)C)NC(=O)[C@H](C(C)C)N(C)C1=O` [Compound 10] (cyclo(F[NMeF][Thz][aIle][NMeV]L[NMeVal(β-OH)][X1][NMeV])), the toxicity signs entry in data set [6] is recorded as “no toxicity signs”.

`CC[C@@H](C)[C@H]1OC(=O)[C@H](C(C)(C)O)N(C)C(=O)[C@H](CC(C)C)NC(=O)[C@H](C(C)C)N(C)C(=O)[C@H](CCC(=O)OCc2ccccc2)NC(=O)[C@@H]2CCCN2C(=O)[C@H](Cc2ccccc2)N(C)C(=O)[C@H](Cc2ccccc2)NC(=O)[C@H](C(C)C)N(C)C1=O` [Compound 26, cyclo(L-GluOR-L-MeVal-L-Leu-L-βHOMeVal-D-Hmp-L-MeVal-L-Phe-L-MePhe-L- Pro) (R: Bzl)] (cyclo(E(OBn)[NMeV]L[NMeVal(β-OH)][X1][NMeV]F[NMeF]P)): in data set [6], the toxicity signs result is given as “no toxicity signs”.

As for `CCCC[C@@H]1NC(=O)[C@@H]2CCCN2C(=O)[C@H](Cc2ccccc2)N(C)C(=O)[C@H](Cc2ccccc2)NC(=O)[C@H](C(C)C)N(C)C(=O)[C@@H]([C@H](C)CC)OC(=O)[C@H](C(C)(C)O)N(C)C(=O)[C@H](CC(C)C)NC(=O)[C@H](C(C)C)N(C)C1=O` [Compound 11] (HELM PEPTIDE1{F.[meF].P.[Nle].[meV].L.[CN([C@H](C(=O)[*:2])C(C)(C)O)[*:1]].[CC[C@@H](C)[C@@H](O[*:1])C(=O)[*:2]].[meV]}$PEPTIDE1,PEPTIDE1,1:R1-9:R2$$$V2.0), in data set [6], the toxicity signs entry is reported as “no toxicity signs”.
